We go through 14 compounds from patent publication US11724997B2, “Compounds and compositions for treating conditions associated with APJ receptor activity” (Annapurna Bio, Inc., priority 2018, dated 2023).

In the assay the target is T1, APJ Receptor (Homo sapiens, UniProt P35414).
T1 sequence (P35414 1-380): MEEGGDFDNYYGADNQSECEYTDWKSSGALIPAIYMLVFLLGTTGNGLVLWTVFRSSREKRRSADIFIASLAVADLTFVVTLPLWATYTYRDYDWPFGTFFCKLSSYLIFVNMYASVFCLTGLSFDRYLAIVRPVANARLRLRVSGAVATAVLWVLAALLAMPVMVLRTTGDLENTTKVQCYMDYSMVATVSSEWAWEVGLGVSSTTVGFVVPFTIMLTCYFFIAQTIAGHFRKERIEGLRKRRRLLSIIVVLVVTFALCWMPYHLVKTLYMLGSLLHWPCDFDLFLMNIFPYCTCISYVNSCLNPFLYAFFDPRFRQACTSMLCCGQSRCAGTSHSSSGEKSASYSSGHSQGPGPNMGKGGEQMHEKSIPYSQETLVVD
As to the kind of experiment: APJ cAMP assay: inhibition of forskolin-stimulated cAMP, enzyme fragment complementation, in CHO-K1 cells stably expressing the APJ Receptor. The class given is cell-based. As to conditions: CHO-K1 cell line (DiscoverX) stably expressing APJ Receptor; EC80 forskolin; 30 minutes at 37° C.; read-out: APJ cAMP EC50 Potency range. An excerpt: Activation of APJ receptor is known to inhibit forskolin-stimulated cyclic AMP (cAMP) production in cells in a pertussis toxin-sensitive manner which indicates primary coupling to the GαI subunit of the G protein heterotrimeric complex. In addition to signaling through G protein and inhibition of cAMP, APJ receptor activation also results in β-arrestin recruitment, receptor internalization and activation of extracellular-regulated kinases (ERKs).
In order to optimize functional activity directed toward Gi coupling we utilized a CHO-K1 cell line developed by DiscoverX stably expressing the APJ Receptor. Cells expressing APJR receptor were plated in a 384-well microtiter plates and incubated overnight at 37° C. with 5% CO2 to allow the cells to attach and grow. Media was then aspirated from the cells and replaced with 15 uL 2:1 Hanks Balanced Salt Solution (HBSS)/10 mM Hepes. cAMP XS+ Ab reagent. Five microliters (5 uL) of previously generated compound sample stocks at 4× final concentration in assay buffer containing 4×EC80 forskolin were then added to the cells and allowed to incubate at 37° C. for 30 minutes.
After incubation the assay signal was generated using a technology termed enzyme fragment complementation (EFC). In EFC the enzyme B-galactosidase is split into two complementary portions (EA and ED). The fragment ED is fused to cAMP and in the assay format competes with endogenous cAMP for binding to a cAMP specific antibody. Activated B-Gal is formed when exogenous EA fragment binds to free ED-cAMP (not bound to cAMP specific antibody). Activated enzyme levels are detected through conversion of B-gal chemiluminescent substrate which generates a detectable luminescence signal and read on standard microtiter plate.
The methodology for detection of cAMP using EFC requires incubation with 20 uL of cAMP XS+ ED/CL lysis cocktail for one hour followed by incubation with 20 uL cAMP XS+ EA reagent for three hours at room temperature. Microplates were read following signal generation with a PerkinElmer Envision instrument utilizing chemiluminescent signal detection.
Compound activity was analyzed using CBIS data analysis suite (ChemInnovation, CA).
Percentage activity was calculated using the following formula: % Activity=[…]×(1−(mean RLU of test sample−mean RLU of Max control)/(mean RLU of vehicle control−mean RLU of Max control))
The biological activity of the exemplified compounds of this invention determined by the assay described above is shown in Table 1. The APJ cAMP EC50 potency ranges are as follows: A: EC50<1 nM; B: 1≤EC50<100 nM; and C: 100≤EC50<10,000 nM.

The structures appear in SMILES notation. Where only a bound is given, the exact number is not on record here.

Consider `CCOc1cccc(-c2nnc(C(=O)NS(=O)(=O)Cc3ncccc3F)n2-c2c(OC)cccc2OC)n1` [Example 52, 4-(2,6-Dimethoxyphenyl)-5-(6-ethoxypyridin-2-yl)-N-(((3-fluoropyridin-2-yl)methyl)sulfonyl)-4H-1,2,4-triazole-3-carboxamide], for which the EC50 is below 1 nM. Regarding `CCOc1cccc(-c2nnc(C(=O)NS(=O)(=O)Cc3ccccc3F)n2-c2c(OC)cccc2OC)n1` [Example 53, 4-(2,6-Dimethoxyphenyl)-5-(6-ethoxypyridin-2-yl)-N-((2-fluorobenzyl)sulfonyl)-4H-1,2,4-triazole-3-carboxamide], the EC50 was below 1 nM. The result for `CCOc1cccc(-c2nnc(C(=O)NS(=O)(=O)Cc3ncn(C)n3)n2-c2c(OC)cccc2OC)n1` [Example 54, 4-(2,6-Dimethoxyphenyl)-5-(6-ethoxypyridin-2-yl)-N-(((1-methyl-1H-1,2,4-triazol-3-yl)methyl)sulfonyl)-4H-1,2,4-triazole-3-carboxamide] reads below 1 nM; that for `COc1cccc(OC)c1-n1c(C(=O)NS(=O)(=O)Cc2ncn(C)n2)nnc1-c1ccc(C)o1` [Example 55, 4-(2,6-Dimethoxyphenyl)-N-(((1-methyl-1H-1,2,4-triazol-3-yl)methyl)sulfonyl)-5-(5-methylfuran-2-yl)-4H-1,2,4-triazole-3-carboxamide], below 1 nM; that for `CCOc1cccc(-c2nnc(C(=O)NS(=O)(=O)Cc3cccnc3)n2-c2c(OC)cccc2OC)n1` [Example 56, 4-(2,6-Dimethoxyphenyl)-5-(6-ethoxypyridin-2-yl)-N-((pyridin-3-ylmethyl)sulfonyl)-4H-1,2,4-triazole-3-carboxamide], below 1 nM. The same measure for `CCOc1cccc(-c2nnc(C(=O)NS(=O)(=O)C(C)Cc3ccccc3)n2-c2c(OC)cccc2OC)n1` (centres unmarked) [Example 57, 4-(2,6-Dimethoxyphenyl)-5-(6-ethoxypyridin-2-yl)-N-((1-phenylpropan-2-yl)sulfonyl)-4H-1,2,4-triazole-3-carboxamide]: below 1 nM; for `COc1cccc(OC)c1-n1c(C(=O)NS(=O)(=O)Cc2ncccn2)nnc1-c1cccc(OC(F)(F)F)n1` [Example 58, 4-(2,6-Dimethoxyphenyl)-N-((pyrimidin-2-ylmethyl)sulfonyl)-5-(6-(trifluoromethoxy)pyridin-2-yl)-4H-1,2,4-triazole-3-carboxamide]: 1 to 100 nM. The result for `COc1cccc(OC)c1-n1c(C(=O)NS(=O)(=O)Cc2ncccn2)nnc1-c1cncc(C)c1` [Example 59, 4-(2,6-Dimethoxyphenyl)-5-(5-methylpyridin-3-yl)-N-((pyrimidin-2-ylmethyl)sulfonyl)-4H-1,2,4-triazole-3-carboxamide] reads 100 to 10000 nM; that for `COc1cccc(-c2nnc(C(=O)NS(=O)(=O)Cc3ccccc3)n2-c2c(Cl)cccc2Cl)n1` [Example 60, N-(benzylsulfonyl)-4-(2,6-dichlorophenyl)-5-(6-methoxypyridin-2-yl)-4H-1,2,4-triazole-3-carboxamide], 100 to 10000 nM; that for `COc1cccc(-c2nnc(C(=O)NS(=O)(=O)Cc3ccccc3)n2-c2c(F)cccc2F)n1` [Example 61, N-(benzylsulfonyl)-4-(2,6-difluorophenyl)-5-(6-methoxypyridin-2-yl)-4H-1,2,4-triazole-3-carboxamide], 100 to 10000 nM. As to `COc1cccc(-c2nnc(C(=O)NS(=O)(=O)Cc3ccccc3)n2-c2c(OC)cccc2C(F)(F)F)n1` [Example 62, N-(benzylsulfonyl)-4-(2-methoxy-6-(trifluoromethyl)phenyl)-5-(6-methoxypyridin-2-yl)-4H-1,2,4-triazole-3-carboxamide], the EC50 lay within 1 to 100 nM.

As to `COc1cccc(-c2nnc(C(=O)NS(=O)(=O)Cc3ccccc3)n2-c2c(F)cccc2OC)n1` [Example 63, N-(benzylsulfonyl)-4-(2-fluoro-6-methoxyphenyl)-5-(6-methoxypyridin-2-yl)-4H-1,2,4-triazole-3-carboxamide], the EC50 was in the range of 1 to 100 nM. The result for `COc1ccc(Cn2nc(C3CC3)nc2-c2nnc(C(=O)NS(=O)(=O)Cc3ccccc3)n2-c2c(OC)cccc2OC)cc1` [Example 64, N-(benzylsulfonyl)-5-cyclopropyl-4′-(2,6-dimethoxyphenyl)-2-(4-methoxybenzyl)-2H,4′H-[3,3′-bi(1,2,4-triazole)]-5′-carboxamide] reads 100 to 10000 nM. The result for `COc1cccc(OC)c1-n1c(C(=O)NS(=O)(=O)Cc2ccccc2)nnc1-c1nc(C2CC2)n[nH]1` [Example 65, N-(benzylsulfonyl)-5-cyclopropyl-4′-(2,6-dimethoxyphenyl)-2H,4′H-[3,3′-bi(1,2,4-triazole)]-5′-carboxamide] reads 100 to 10000 nM.

As a reminder, the EC50 is the concentration that produces a half-maximal response.
